In US11945811B2, “Potassium channel inhibitors” (ACESION PHARMA APS, priority 2021, dated 2024) one finds IC50 data, which are given here for 23 molecules.

Some results are limits rather than exact numbers.

As a reminder, the IC50 is the point on the concentration scale where inhibition reaches its midpoint.

The target in this assay is T1, human SK3 channel (hKCa2.3) (Homo sapiens, UniProt Q9UGI6).
T1 construct: expressed in transfected cells
The assay can be described thus: Automated patch clamping (QPatch 16 HT whole-cell recordings). The assay is classed as cell-based. Particulars: HEK-293 cells stably expressing hKCa2.3; currents measured at −80 mV; normalized to N-methyl bicuculline; read-out: IC50 in the Automated patch clamping assay (SK3 channel inhibition). As to the method: Automated whole cell patch-clamp recordings were performed using a QPatch 16 HT system and single-hole Qplates (Sophion, Denmark) on HEK-293 cells stably expressing the human SK3 channel (hKCa2.3). Cells were cultured and prepared for experiments using normal cell culturing procedures. A total of 4-5 million cells were used per experiment. The Qpatch automatically generates giga sealing, whole-cell formation, compound application and recording of current. hKCa2.3 currents were recorded in symmetrical K^+ solutions. The intracellular/pipette solution contained 154 mM KCl, 10 mM HEPES and 10 mM EGTA. CaCl2 is added to give calculated free concentrations of Ca^2+ of 0.4 μM and MgCl2 is added to give a free concentration of 1 mM. In order to maintain a total [K^+] of 156 mM (corresponding to the concentration in the extracellular ringer) a fixed amount of KOH (15 mM) is added, thereafter pH is adjusted with HCl to pH=7.2. Expected osmolarity: 275 mOsm. Sucrose was added to a final osmolarity around 295 mosm. The extracellular solution consisted of (in mM): CaCl2 0.1, MgCl2 3, KCl 150, HEPES 10 and glucose 10, pH=7.4 adjusted with KOH. Osmolarity between 285-295 mosm. The cells were held at 0 mV and hKCa2.3 currents were elicited by a linear voltage ramp from −80 mV to +80 mV (200 ms in duration) applied every 5th second.
The compound application protocol consisted of 12 recording periods lasting 200 s: 1) Baseline recordings in extracellular solution; 2) Application of the positive control N-methyl bicuculline (100 μM), which is characterized by full efficacy, fast on- and off-rate; 3-4) Wash-out; 5-10) Increasing concentrations of test compound to establish an IC50 value; 11-12) Wash-out; 13) positive control with compound NS8593 (N-[(1R)-1,2,3,4-tetrahydro-1-naphthalenyl]-1H-benzimidazol-2-amine) (1 μM) or with N-methyl bicuculline (100 μM). Data were sampled at 10 kHz, 4th order Bessel filter, cut-off frequency 3 kHz. Currents were compensated for run-down. Potency was quantified as the concentration needed to inhibit half of the SK channel activity and reported as an IC50 value.
All effects of compounds of the present invention as tested were normalized to the observed inhibitory effect of N-methyl bicuculline. Currents were measured at −80 mV.
A general note: Patch clamp records ionic current or voltage across a cell membrane.
With `Cc1nnc(NCc2cccc3[nH]c(NC(C)(CO)c4ccc(F)c(Cl)c4)nc23)o1` (centres unmarked) [Example 16, 2-(3-chloro-4-fluorophenyl)-2-((4-(((5-methyl-1,3,4-oxadiazol-2-yl)amino)methyl)-1H-benzo[d]imidazol-2-yl)amino) propan-1-ol], the concentration for half-maximal inhibition (IC50) is less than 30 µM.

Take `Cc1noc(NCc2cccc3[nH]c(NC(C)(CO)c4ccc(F)c(Cl)c4)nc23)n1` (centres unmarked) [Example 17, 2-(3-chloro-4-fluorophenyl)-2-[(4-{[(3-methyl-1,2,4-oxadiazol-5-yl)amino]methyl}-1H-1,3-benzodiazol-2-yl)amino]propan-1-ol]: the IC50 is less than 30 µM.

`CC(CO)(Nc1nc2c(Cn3ccoc3=N)cccc2[nH]1)c1cccc(C(F)(F)F)c1` (centres unmarked) [Example 18, 2-({4-[(2-imino-2,3-dihydro-1,3-oxazol-3-yl)methyl]-1H-1,3-benzodiazol-2-yl}amino)-2-[3-(trifluoromethyl)phenyl]propan-1-ol]: the IC50 was less than 1 µM.

Regarding `CC(CO)(Nc1nc2c(Cn3ccoc3=N)cccc2[nH]1)c1ccc(Cl)c(Cl)c1` (centres unmarked) [Example 19, 2-(3,4-dichlorophenyl)-2-({4-[(2-imino-2,3-dihydro-1,3-oxazol-3-yl)methyl]-1H-1,3-benzodiazol-2-yl}amino)propan-1-ol], the IC50 was less than 1 µM.

In the case of `Cc1oc(=N)n(Cc2cccc3[nH]c(NC(C)(CO)c4ccc(F)c(Cl)c4)nc23)c1C` (centres unmarked) [Example 20, 2-(3-chloro-4-fluorophenyl)-2-({4-[(2-imino-4,5-dimethyl-2,3-dihydro-1,3-oxazol-3-yl)methyl]-1H-1,3-benzodiazol-2-yl}amino)propan-1-ol], the IC50 was less than 1 µM.

`Cn1nccc1NCc1cccc2[nH]c(NC(C)(CO)c3cccc(C(F)(F)F)c3)nc12` (centres unmarked) [Example 21, 2-((4-(((1-methyl-1H-pyrazol-5-yl)amino)methyl)-1H-benzo[d]imidazol-2-yl)amino)-2-(3-(trifluoromethyl)phenyl) propan-1-ol]: the IC50 is less than 30 µM.

Take `Cn1ccnc1NCc1cccc2[nH]c(NC(C)(CO)c3cccc(C(F)(F)F)c3)nc12` (centres unmarked) [Example 22, 2-((4-(((1-methyl-1H-imidazol-2-yl)amino)methyl)-1H-benzo[d]imidazol-2-yl)amino)-2-(3-(trifluoromethyl)phenyl)propan-1-ol]: the IC50 was less than 30 µM.

Regarding `Cc1coc(=N)n1Cc1cccc2[nH]c(NC(C)(CO)c3cccc(C(F)(F)F)c3)nc12` (centres unmarked) [Example 23, 2-({4-[(2-imino-4-methyl-2,3-dihydro-1,3-oxazol-3-yl)methyl]-1H-1,3-benzodiazol-2-yl}amino)-2-[3-(trifluoromethyl)phenyl]propan-1-ol], the IC50 was less than 1 µM.

As to `Cc1cn(Cc2cccc3[nH]c(NC(C)(CO)c4cccc(C(F)(F)F)c4)nc23)c(=N)o1` (centres unmarked) [Example 24, 2-({4-[(2-imino-5-methyl-2,3-dihydro-1,3-oxazol-3-yl)methyl]-1H-1,3-benzodiazol-2-yl}amino)-2-[3-(trifluoromethyl)phenyl]propan-1-ol], the IC50 was less than 1 µM.

For the molecule `CCC(CO)(Nc1nc2c(Cn3ccoc3=N)cccc2[nH]1)c1cccc(C(F)(F)F)c1` (centres unmarked) [Example 25, 2-({4-[(2-imino-2,3-dihydro-1,3-oxazol-3-yl)methyl]-1H-1,3-benzodiazol-2-yl}amino)-2-[3-(trifluoromethyl)phenyl]butan-1-ol], the IC50 was less than 30 µM.

With `CC(CCO)(Nc1nc2c(Cn3ccoc3=N)cccc2[nH]1)c1cccc(C(F)(F)F)c1` (centres unmarked) [Example 26, 3-({4-[(2-imino-2,3-dihydro-1,3-oxazol-3-yl)methyl]-1H-1,3-benzodiazol-2-yl}amino)-3-[3-(trifluoromethyl)phenyl]butan-1-ol], the IC50 was less than 30 µM.

In the case of `CC(CO)(Nc1nc2c(Cn3ccoc3=N)cccc2[nH]1)c1cccc(OC(F)(F)F)c1` (centres unmarked) [Example 27, 2-({4-[(2-imino-2,3-dihydro-1,3-oxazol-3-yl)methyl]-1H-1,3-benzodiazol-2-yl}amino)-2-[3-(trifluoromethoxy)phenyl]propan-1-ol], the half-inhibitory concentration (IC50) was less than 1 µM.

Take `Cc1oc(=N)n(Cc2cccc3[nH]c(NC(C)(CO)c4cccc(C(F)(F)F)c4)nc23)c1C` (centres unmarked) [Example 28, 2-({4-[(2-imino-4,5-dimethyl-2,3-dihydro-1,3-oxazol-3-yl)methyl]-1H-1,3-benzodiazol-2-yl}amino)-2-[3-(trifluoromethyl)phenyl]-propan-1-ol]: the concentration for half-maximal inhibition (IC50) was less than 30 µM.

For `Cc1coc(=N)n1Cc1cccc2[nH]c(NC(C)(CO)c3cccc(OC(F)(F)F)c3)nc12` (centres unmarked) [Example 29, 2-({4-[(2-imino-4-methyl-2,3-dihydro-1,3-oxazol-3-yl)methyl]-1H-1,3-benzodiazol-2-yl}amino)-2-[3-(trifluoromethoxy)phenyl]propan-1-ol], the IC50 is less than 1 µM.

Turning to `Cc1cn(Cc2cccc3[nH]c(NC(C)(CO)c4cccc(OC(F)(F)F)c4)nc23)c(=N)o1` (centres unmarked) [Example 30, 2-({4-[(2-imino-5-methyl-2,3-dihydro-1,3-oxazol-3-yl)methyl]-1H-1,3-benzodiazol-2-yl}amino)-2-[3-(trifluoromethoxy)phenyl]-propan-1-ol], the IC50 was less than 1 µM.

Take `CC(Nc1ncco1)c1cccc2[nH]c(NC(C)(CO)c3ccc(F)c(Cl)c3)nc12` (centres unmarked) [Example 31, 2-(3-chloro-4-fluorophenyl)-2-[(4-{1-[(1,3-oxazol-2-yl)amino]ethyl}-1H-1,3-benzodiazol-2-yl)amino]propan-1-ol]: the IC50 was less than 30 µM.

Take `CC(CO)(Nc1nc2c(Cn3ccsc3=N)cccc2[nH]1)c1ccc(F)c(Cl)c1` (centres unmarked) [Example 32, 2-(3-chloro-4-fluorophenyl)-2-({4-[(2-imino-2,3-dihydro-1,3-thiazol-3-yl)methyl]-1H-1,3-benzodiazol-2-yl}amino)propan-1-ol]: the IC50 is less than 1 µM.

Take `CC(CO)(Nc1nc2c(Cn3cc[nH]c3=O)cccc2[nH]1)c1ccc(F)c(Cl)c1` (centres unmarked) [Example 33, 1-[(2-{[2-(3-chloro-4-fluorophenyl)-1-hydroxypropan-2-yl]amino}-1H-1,3-benzodiazol-4-yl)methyl]-2,3-dihydro-1H-imidazol-2-one]: the IC50 is less than 30 µM.

For the molecule `CC(CO)(Nc1nc2c(CN3CCNC3=O)cccc2[nH]1)c1ccc(F)c(Cl)c1` (centres unmarked) [Example 34, 1-[(2-{[2-(3-chloro-4-fluorophenyl)-1-hydroxypropan-2-yl]amino}-1H-1,3-benzodiazol-4-yl)methyl]imidazolidin-2-one], the IC50 was less than 30 µM.

Regarding `CN1CCN(Cc2cccc3[nH]c(NC(C)(CO)c4ccc(F)c(Cl)c4)nc23)C1=O` (centres unmarked) [Example 35, 1-[(2-{[2-(3-chloro-4-fluorophenyl)-1-hydroxypropan-2-yl]amino}-1H-1,3-benzodiazol-4-yl)methyl]-3-methylimidazolidin-2-one], the IC50 was less than 30 µM.

Consider `CC(CO)(Nc1nc2c(CN3CCSC3=O)cccc2[nH]1)c1ccc(F)c(Cl)c1` (centres unmarked) [Example 36, 3-[(2-{[2-(3-chloro-4-fluorophenyl)-1-hydroxypropan-2-yl]amino}-1H-1,3-benzodiazol-4-yl)methyl]-1,3-thiazolidin-2-one], for which the IC50 is less than 30 µM.

For `CC(CO)(Nc1nc2c(CN3CCCC3=O)cccc2[nH]1)c1ccc(F)c(Cl)c1` (centres unmarked) [Example 37, 1-[(2-{[2-(3-chloro-4-fluorophenyl)-1-hydroxypropan-2-yl]amino}-1H-1,3-benzodiazol-4-yl)methyl]pyrrolidin-2-one], the IC50 was less than 30 µM.

`CC(CO)(Nc1nc2c(CNc3ncco3)cccc2[nH]1)c1ccc(F)c(Cl)c1` (centres unmarked) [Example 38, 2-(3-chloro-4-fluorophenyl)-2-[(4-{[(1,3-oxazol-2-yl)amino]methyl}-1H-1,3-benzodiazol-2-yl)amino]propan-1-ol]: the IC50 was less than 30 µM.
